Patent publication US12655116B2, “Substituted isophthalic acid diamides” (Bayer Aktiengesellschaft, priority 2020, dated 2026)

Key:
[1] = test system: ABUTH; assay: Post-emergence herbicidal action against ABUTH; assay type: in vivo, Abutilon theophrasti; conditions: visual assessment about 3 weeks after treatment vs untreated controls
How it was run: (§1)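 Foliar application at one-leaf stage of formulated test compounds, aqueous spray at 600–800 l/ha with 0.2% wetting agent. Greenhouse, optimal conditions, ~3 weeks; damage scored visually in % relative to untreated plants.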

[2] = test system: STEME; assay: Post-emergence herbicidal action against STEME; assay type: in vivo, Stellaria media
How it was run: as §1

[3] = test system: AMARE; assay: Post-emergence herbicidal action against AMARE; assay type: in vivo, Amaranthus retroflexus; conditions: 20 g/ha, visual assessment about 3 weeks after treatment, 100% = plants have died, 0% = like control plants
How it was run: as §1

[4] = test system: SETVI; assay: Post-emergence herbicidal action against SETVI; assay type: in vivo, Setaria viridis
How it was run: as §1

[5] = test system: ECHCG; assay: Post-emergence herbicidal action against ECHCG; assay type: in vivo, Echinochloa crus-galli
How it was run: as §1

[6] = test system: VIOTR; assay: Pre-emergence herbicidal action against VIOTR; assay type: in vivo, Viola tricolor
How it was run: (§2)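 Greenhouse pots of sandy loam held seeds covered with soil, onto which the compound was applied before emergence. An aqueous suspension or emulsion of WP or EC was used at 600 to 800 l/ha with 0.2% wetting agent. Percent damage was judged visually at 3 weeks.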

[7] = test system: AMARE; assay: Pre-emergence herbicidal action against AMARE; assay type: in vivo, Amaranthus retroflexus
How it was run: as §2

[8] = test system: AVEFA; assay: Pre-emergence herbicidal action against AVEFA; assay type: in vivo, Avena fatua; conditions: 80 g/ha, pre-emergence
How it was run: as §2

[9] = test system: DIGSA; assay: Pre-emergence herbicidal action against DIGSA; assay type: in vivo, Digitaria sanguinalis
How it was run: as §2

[10] = test system: MATIN; assay: Pre-emergence herbicidal action against MATIN; assay type: in vivo, Matricaria inodora
How it was run: as §2

[11] = test system: STEME; assay: Pre-emergence herbicidal action against STEME; assay type: in vivo, Stellaria media
How it was run: as §2

[12] = test system: POLCO; assay: Pre-emergence herbicidal action against POLCO; assay type: in vivo, Polygonum convolvulus
How it was run: as §2

[13] = test system: PHBPU; assay: Post-emergence herbicidal action against PHBPU; assay type: in vivo, Pharbitis purpurea; conditions: dosage 20 g/ha
How it was run: as §1

[14] = test system: ECHCG; assay: Pre-emergence herbicidal action against ECHCG; assay type: in vivo, Echinochloa crus-galli; conditions: 80 g/ha
How it was run: as §2

[15] = test system: AVEFA; assay: Post-emergence herbicidal action against AVEFA; assay type: in vivo, Avena fatua; conditions: 20 g/ha, visual assessment about 3 weeks after treatment, 100% = plants have died, 0% = like control plants
How it was run: as §1

[16] = test system: DIGSA; assay: Post-emergence herbicidal action against DIGSA; assay type: in vivo, Digitaria sanguinalis
How it was run: as §1

[17] = test system: SETVI; assay: Pre-emergence herbicidal action against SETVI; assay type: in vivo, Setaria viridis
How it was run: as §2

[18] = test system: ABUTH; assay: Pre-emergence herbicidal action against ABUTH; assay type: in vivo, Abutilon theophrasti
How it was run: as §2

[19] = test system: VIOTR; assay: Post-emergence herbicidal action against VIOTR; assay type: in vivo, Viola tricolor; conditions: Viola tricolor, 504 h, 20 g/ha
How it was run: as §1

[20] = test system: LOLRI; assay: Pre-emergence herbicidal action against LOLRI; assay type: in vivo, Lolium rigidum; conditions: Lolium rigidum, 504 h, 80 g/ha
From the text: Seeds of monocotyledonous and dicotyledonous weed plants and crop plants are laid out in sandy loam soil in wood-fiber pots and covered with soil. The compounds of the invention, formulated in the form of wettable powders (WP) or as emulsion concentrates (EC), are then applied to the surface of the covering soil in the form of an aqueous suspension or emulsion at a water application rate equivalent to 600 to 800 l/ha, with addition of 0.2% wetting agent. After the treatment, the pots are placed in a greenhouse and kept under good growth conditions for the trial plants. The damage to the test plants is scored visually after a test period of 3 weeks by comparison with untreated controls (herbicidal activity in percent (%): 100% activity=the plants have died, 0% activity=like control plants). […] The tables below illustrate, in an illustrative manner, the post-emergence herbicidal action of the compounds of the invention, the herbicidal activity being stated in percent.

[21] = test system: VERPE; assay: Post-emergence herbicidal action against VERPE; assay type: in vivo, Veronica persica; conditions: Veronica persica, 504 h, 20 g/ha
How it was run: as §1

[22] = test system: ALOMY; assay: Pre-emergence herbicidal action against ALOMY; assay type: in vivo, Alopecurus myosuroides; conditions: Alopecurus myosuroides, 504 h, pre-emergence
How it was run: as §2

[23] = 80 g/ha, scored visually after 3 weeks vs untreated controls (100% = plants have died, 0% = like control plants)

Structure (SMILES): CNC(=O)c1c(C(F)F)ccc(C(=O)Nc2nnco2)c1SC [Example 5-74]
- Post-emergence action against ABUTH in % ([1]; dosage 5 g/ha): 90%
- Post-emergence action against ABUTH in % ([1]; dosage 20 g/ha): 90%
- Post-emergence action against STEME in % ([2]; 20 g/ha): 90%
- Post-emergence action against STEME in % ([2]; dosage 5 g/ha): 80%
- Post-emergence action at 20 g/ha against AMARE in % [3]: 100%
- Post-emergence action against SETVI in % ([4]; dosage 5 g/ha): 80%
- Post-emergence action against SETVI in % ([4]; dosage 20 g/ha): 90%
- Post-emergence action against ECHCG in % ([5]; dosage 5 g/ha): 80%
- Post-emergence action against ECHCG in % ([5]; dosage 20 g/ha): 80%
- Pre-emergence action against VIOTR in % ([6]; dosage 80 g/ha): 100%
- Pre-emergence action against AMARE in % ([7]; 20 g/ha, scored visually after 3 weeks vs untreated controls, 100% = plants have died, 0% = like control plants): 100%
- Pre-emergence action against AMARE in % [7, 23]: 100%
- Pre-emergence action against AVEFA in % [8]: 80%
- Pre-emergence action against DIGSA in % ([9]; dosage 20 g/ha): 90%
- Pre-emergence action against DIGSA in % ([9]; dosage 80 g/ha): 100%
- Pre-emergence action against MATIN in % ([10]; dosage 20 g/ha): 80%
- Pre-emergence action against MATIN in % ([10]; dosage 80 g/ha): 90%
- Pre-emergence action against STEME in % ([11]; dosage 20 g/ha): 90%
- Pre-emergence action against STEME in % ([11]; dosage 80 g/ha): 100%
- Pre-emergence action against POLCO in % ([12]; dosage 20 g/ha): 80%
- Pre-emergence action against POLCO in % ([12]; dosage 80 g/ha): 80%
- Post-emergence action against PHBPU in % [13]: 100%
- Pre-emergence action against ECHCG in % [14]: 90%
- Post-emergence action at 20 g/ha against AVEFA in % [15]: 80%
- Post-emergence action against DIGSA in % ([16]; 5 g/ha): 90%
- Post-emergence action against DIGSA ([16]; 20 g/ha): 90%
- Pre-emergence action against SETVI in % ([17]; dosage 80 g/ha): 90%
- Pre-emergence action against ABUTH (herbicidal activity) [18, 23]: 100%
- Pre-emergence action against ABUTH (herbicidal activity in percent) ([18]; dosage 20 g/ha, scored visually after 3 weeks vs untreated controls, 100% = plants have died, 0% = like control plants): 80%

Structure (SMILES): Cn1nnnc1NC(=O)c1ccc(I)c(C(=O)NC2CC2)c1Cl [Example 1-197]
- pest or weed control at 20 g/ha ([1]; Abutilon theophrasti, 504 h, dosage 20 g/ha): 100%
- pest or weed control at 20 g/ha ([3]; Amaranthus retroflexus, 504 h): 100%
- pest or weed control at 20 g/ha [19]: 100%
- pest or weed control at 20 g/ha ([5]; Echinochloa crus-galli, 504 h, dosage 20 g/ha): 90%
- pest or weed control at 20 g/ha ([6]; Viola tricolor, 504 h, dosage 20 g/ha): 100%
- pest or weed control at 80 g/ha ([6]; Viola tricolor, 504 h, dosage 80 g/ha): 100%
- pest or weed control at 20 g/ha ([7]; Amaranthus retroflexus, 504 h, 20 g/ha, scored visually after 3 weeks vs untreated controls, 100% = plants have died, 0% = like control plants): 100%
- pest or weed control at 80 g/ha ([7]; Amaranthus retroflexus, 504 h, 80 g/ha, scored visually after 3 weeks vs untreated controls, 100% = plants have died, 0% = like control plants): 100%
- pest or weed control at 80 g/ha ([8]; Avena fatua, 504 h): 100%
- pest or weed control at 20 g/ha ([9]; Digitaria sanguinalis, 504 h, dosage 20 g/ha): 100%
- pest or weed control at 80 g/ha ([9]; Digitaria sanguinalis, 504 h, dosage 80 g/ha): 100%
- pest or weed control at 80 g/ha [20]: 80%
- pest or weed control at 20 g/ha ([10]; Tripleurospermum inodorum, 504 h, dosage 20 g/ha): 90%
- pest or weed control at 80 g/ha ([10]; Tripleurospermum inodorum, 504 h, dosage 80 g/ha): 100%
- pest or weed control at 20 g/ha ([13]; Ipomoea purpurea, 504 h): 90%
- pest or weed control at 80 g/ha ([14]; Echinochloa crus-galli, 504 h): 90%
- pest or weed control at 5 g/ha ([16]; Digitaria sanguinalis, 504 h, 5 g/ha): 100%
- pest or weed control at 20 g/ha ([16]; Digitaria sanguinalis, 504 h, 20 g/ha): 100%
- pest or weed control at 20 g/ha [21]: 80%
- pest or weed control at 80 g/ha [22, 23]: 100%
- pest or weed control at 20 g/ha ([22]; 20 g/ha, scored visually after 3 weeks, 100% = plants have died, 0% = like control plants): 100%
- pest or weed control at 20 g/ha ([17]; Setaria viridis, 504 h, dosage 20 g/ha): 100%
- pest or weed control at 80 g/ha ([17]; Setaria viridis, 504 h, dosage 80 g/ha): 100%
- pest or weed control at 80 g/ha ([18]; Abutilon theophrasti, 504 h, 80 g/ha, scored visually after 3 weeks vs untreated controls (100% = plants have died, 0% = like control plants)): 100%
- pest or weed control at 20 g/ha ([18]; Abutilon theophrasti, 504 h, dosage 20 g/ha, scored visually after 3 weeks vs untreated controls, 100% = plants have died, 0% = like control plants, read-out: Pre-emergence action against ABUTH (herbicidal activity in percent)): 100%
